Source: US20200096789A1, “Optical Aid” (priority 2017, published 2020)

Tests used:
Format in all cases: cell-based
[1] = target: T1, SLC7A11 (Homo sapiens, UniProt Q9UPY5); assay: total intracellular selenium levels after selenite supplementation; conditions: knockout of SLC7A11
T1 construct: endogenous in cells
T1 sequence (Q9UPY5 1-501): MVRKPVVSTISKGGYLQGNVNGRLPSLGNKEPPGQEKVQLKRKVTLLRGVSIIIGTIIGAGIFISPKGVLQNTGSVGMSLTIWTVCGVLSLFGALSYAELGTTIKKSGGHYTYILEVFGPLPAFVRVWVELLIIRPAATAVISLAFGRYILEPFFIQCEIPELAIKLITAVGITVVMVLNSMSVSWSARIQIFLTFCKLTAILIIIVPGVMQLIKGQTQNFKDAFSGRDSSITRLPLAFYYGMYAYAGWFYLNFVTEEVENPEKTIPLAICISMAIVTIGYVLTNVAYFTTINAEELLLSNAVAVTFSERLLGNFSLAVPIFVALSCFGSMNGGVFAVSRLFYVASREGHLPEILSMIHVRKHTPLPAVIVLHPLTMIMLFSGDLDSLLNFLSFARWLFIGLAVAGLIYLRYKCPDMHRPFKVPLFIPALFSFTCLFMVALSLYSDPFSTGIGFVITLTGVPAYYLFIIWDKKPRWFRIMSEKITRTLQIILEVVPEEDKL
T1 sequence (P08195 1-529 partner): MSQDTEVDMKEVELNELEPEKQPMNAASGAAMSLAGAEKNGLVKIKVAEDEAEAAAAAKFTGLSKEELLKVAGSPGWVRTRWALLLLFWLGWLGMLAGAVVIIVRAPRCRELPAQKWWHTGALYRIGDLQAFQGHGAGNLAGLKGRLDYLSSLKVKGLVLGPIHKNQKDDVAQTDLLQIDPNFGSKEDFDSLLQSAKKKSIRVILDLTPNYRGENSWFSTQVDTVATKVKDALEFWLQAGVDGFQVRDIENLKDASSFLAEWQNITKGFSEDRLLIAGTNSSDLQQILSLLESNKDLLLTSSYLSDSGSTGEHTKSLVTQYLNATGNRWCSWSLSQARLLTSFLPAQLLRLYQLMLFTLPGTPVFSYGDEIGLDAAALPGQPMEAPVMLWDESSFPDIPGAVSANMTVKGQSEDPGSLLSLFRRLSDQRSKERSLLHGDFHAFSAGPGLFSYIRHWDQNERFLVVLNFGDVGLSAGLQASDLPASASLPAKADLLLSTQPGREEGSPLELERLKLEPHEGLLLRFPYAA
Excerpt: SLC7A11 was 5.5-fold enriched in SEPHS2-sensitive cell lines (FIG. 4C).

[2] = system: GPX4 and SEPHS2; assay: selenoprotein expression after selenite supplementation; conditions: supplementation with selenite to media
[3] = system: U251 cells; assay: CRISPR/Cas9 screen of candidate selenium transporters: toxicity of 12 μM selenite; conditions: both guides against SLC7A11, U251 cells
Experimental: We compared the cells that are sensitive to SEPHS2 KO vs those that are not sensitive to identify key drivers of selenide production. We examined these lines for susceptibility to high, toxic doses of selenite as it is an abundant and bioavailable form of selenium. We observed a strong correlation between susceptibility to high-dose selenite and to SEPHS2 KO (FIG. 4A). […] Two guides per candidate transporter were knocked out in U251 cells and effects on the toxicity of 12 μM selenite were examined.

[4] = system: U251 GBM cell line; assay: selenite treatment in conjunction with SEPHS2 KO (growth); conditions: 12 uM selenite; growth normalized to SEPHS2 KO cells
Experimental: FIGS. 2A-D provide evidence that SEPHS2 plays a detoxifying role in U251 GBM cell line. (A) Knockdown of either SEPHS2 or SEPSECS can block selenoprotein expression. (B) However, only SEPHS2 KO has significant toxicity. (C) Model for ‘pushing’ toxicity in which if SEPHS2 plays a detoxifying role, its KO should synergize with increased selenited input. (D) Synergy is indeed seen with 12 uM selenite treatment in conjunction with SEPHS2 KO. Growth is normalized to the already lower growth rate of the SEPHS2 KO cells, thus the bars in asterisks indicate (statistically significant) synergy.
We had classified SEPHS2 as a putative detoxifier as its substrate, selenide, is the most toxic form of selenium^12. The notion of SEPHS2 as a detoxifier has not previously been explored, and SEPHS2 is simply known for its enzymatic role (which cannot be replaced by its isoform, SEPHS1^13) as an intermediate step in producing selenocysteine for selenocysteinyl-tRNA production. The selenocysteine producing pathway is a simple and linear pathway starting from dietary […]—or […] or other inorganic forms which can be converted to selenite, selenite being the most common form^14,15. Selenite is imported and converted through in an unclear manner to form selenide, which is then metabolized by SEPHS2 to form selenophosphate, accompanied by ATP hydrolysis. […]

SMILES: O=[Se](O)O [selenite]
- total intracellular selenium due to supplemented selenite [1]: prevented any increase
- expression of selenoproteins GPX4 and SEPHS2 [2]: increased expression
- toxicity of high-dose selenite after knockout of SLC7A11 [3]: complete rescue
- growth with selenite in conjunction with SEPHS2 KO [4]: Synergy
